Reference: publication PMC10915964, “Identifying ligands for the PHD1 finger of KDM5A through high-throughput screening†” (RSC Chemical Biology, 2023)

Test: Solubility in the NMR buffer
Type: physicochemical
Conditions: 1 mM in 50 mM HEPES pH 7.5, 150 mM KCl NMR buffer
Description: The binding of the ChemBridge screen hits to PHD1 was further evaluated using 2D ^1H–^15N HSQC NMR spectroscopy. This direct binding method allowed us to monitor binding by observing any ligand-induced changes in the previously assigned ^1H–^15N PHD1 amino acid resonances.[12] The HSQC spectra of 50 μM ^15N-labeled PHD1 with DMSO were overlaid with the spectra of the ^15N-labeled PHD1 incubated with 1 mM compound. […] Compound 715 958 was insoluble in the NMR buffer at this concentration and was not evaluated.
The six NCI screen hits confirmed by dose response in the FP assay were further evaluated by 2D ^1H–^15N HSQC NMR at 1 mM to assess their direct binding to PHD1 (Fig. S5, ESI ^†). Compound 990 670 was insoluble in the NMR buffer and was excluded from further consideration. Out of the five compounds evaluated, 991 830, 990 856, and 988 385 caused very minor CSP on PHD1 (average shifts ≤ 0.002 ppm; Fig. S5a–c, ESI ^†). […] The observed perturbations are low, but in the range of those induced by competitive binding fragment ligands evaluated at 5 mM with the PHD finger of BAZ2B, for which the perturbations observed were up to 0.035 ppm.[19] Residue Cys322, one of the Zn(II) ligands in the first zinc finger in PHD1, is the most affected by the presence of oxazepine 516 969 (Δδ of 0.009 ppm; Fig. S5d, ESI ^†). […]

Cc1ccc(N2CC(c3nnc(NC(=O)c4c(-c5ccccc5)noc4C)s3)CC2=O)cc1C (stereo not shown) [990 670]
solubility in the NMR buffer: insoluble
